In PMC5559490, “Synthesis of Saccharumoside-B analogue with potential of antiproliferative and pro-apoptotic activities” (Scientific Reports, 2017):

Columns and labels:
caspase-8 = assay: Caspase-8 colorimetric assay, MCF-7; type: cell-based, human; conditions: MCF-7 cells; data not showed
Method: (§1) Caspases-3, -8 and -9 assays were measured according to manufacturer’s instructions using a caspase colorimetric protease kit (Abcam, Cambridge, MA, USA). Cells were treated with compounds for 48 h. The cells were lysed by the addition of 50 μL of chilled cell lysis buffer and incubated on ice for 10 min. The resulting cell lysate was centrifuged for 1 min at 10,000 g, and the supernatant was collected. The cell lysate containing […] of protein was incubated with […] of 4 mmol/L pNA-conjugated substrates (DEVD-pNA, IETD-pNA and LEHD-pNA; substrates for caspase-3, -8 and -9, respectively) at 37 °C for 3 h. The amount of pNA released was measured at 405 nm using an ELISA microplate reader (Bio rad). The caspases activity was expressed as fold difference, [33].

cytosolic cytochrome c [1] = assay: Cytosolic cytochrome c estimation (ELISA), HL-60; type: cell-based, human; conditions: HL-60 cells; cytosolic fraction
Method: (§2) Cells were collected by centrifugation at 600 g for 5 min at 4 °C. The cell pellets were washed once with ice-cold PBS and resuspended in cytosol extraction buffer (20 mM Hepes-KOH, pH 7.5, 10 mM KCl, 1.5 mM MgCl2, 1 mM sodium EDTA, 1 mM sodium EGTA, 1 mM dithiothreitol and 0.1 mM PMSF) containing 250 mM sucrose on ice for 10 min. The cells were homogenized with the grinder on ice. Further, the homogenates were centrifuged at 700 g for 10 min at 4 °C. The supernatants were centrifuged at 10,000 × g for 30 min at 4 °C. Supernatant was collected as cytosolic fraction.
(§3) Cytosolic cytochrome c levels were determined using quantitative sandwich enzyme immunoassay using microplate reader. Sample or standard (100 μL) was added into each well and incubated for 2 h at room temperature. The wells were washed several times with wash buffer. The plate was inverted and cleaned with paper toweling. Cytochrome c conjugate (200 μL) was added into each well and incubated for 2 h at room temperature. Wells were washed several times with wash buffer. Substrate solution (200 μL) was added into each well and incubated for 30 min at room temperature. Finally, stop solution (50 μL) was added into wells. The optical density (absorbance) of each well was determined using microplate reader at a 450 nm wavelength.

caspase-3 = assay: Caspase-3 colorimetric assay, HL-60; type: cell-based, human; conditions: HL-60 cells
Method: as §1

HL-60 cells = assay: Cell cycle analysis (PI, flow cytometry), HL-60; type: cell-based, human; conditions: 24 h
Method: Cancer cells (1 × 10^6/ml) were treated with different concentrations of compound (5 and10 µM) for 24 h, fixed in cold 70% alcohol in PBS, washed, digested with DNase free RNase (400 µg/mL) at 37 °C for 45 min and stained with propidium iodide (10 µg/ml). Cells were analyzed for PI-DNA fluorescence by flow cytometerically using FACS CALIBUR (Becton Dickinson, Franklin Lakes, New Jersey, USA)[28]–[30]. The fluorescence intensity of subG0/GI cell fraction represents the dead cell population.

Bcl-2 [2] = assay: Quantification of Bcl-2 (ELISA), HL-60; type: cell-based, human; conditions: HL-60 cells; compared to untreated cells
Method: (§4) The intracellular content of Bcl-2 was quantified using the human Bcl-2 ELISA kit (Abcam, Cambridge, MA, USA). For the sample preparation, the cells were lysed with 1X lysis buffer. After 1 h of incubation at room temperature, the sample was spun at 1,000 g for 15 min and the supernatant was used for Bcl-2 measurement. Briefly, 80 μL of sample diluent and 20 μL of sample were added into the wells coated with monoclonal antibody to human Bcl-2, and after that the wells were washed twice with the wash buffer. Next, 50 μL of biotin-conjugate were added into the wells. After 2 h of incubation at room temperature on a microplate shaker, 100 μL of streptavidin-horseradish peroxidase were added. The sample was incubated again for 1 h at room temperature on a microplate shaker. The solution was withdrawn and the wells were washed with 3X wash buffer. Immediately, 100 μL of TMB substrate solution were added. Finally, 100 μL of stop solution were added into each well to stop the enzyme reaction. The absorbance was read using an ELISA reader at 450 and 620 nm wavelengths. Bcl-2 protein concentration was determined from the standard protein graphic using the optical densities of the samples[32].

Bcl-2 [3] = assay: Quantification of Bcl-2 (ELISA), MCF-7; type: cell-based, human; conditions: MCF-7 cells; compared to untreated cells
Method: as §4

caspase-9 = assay: Caspase-9 colorimetric assay, HL-60; type: cell-based, human; conditions: HL-60 cells
Method: as §1

[4] = tested on: MCF-7 breast cancer cells; assay: MTT antiproliferative assay, MCF-7; type: cell-based; conditions: Homo sapiens, MCF7; MTT assay; cancer cell line; mean of three independent experiments ± S.E.M.; read-out: IC50 MCF-7 Breast
cytosolic cytochrome c [5] = assay: Cytosolic cytochrome c estimation (ELISA), MCF-7; type: cell-based, human; conditions: MCF-7 cells; 5, 10 µM
Method: as §2, §3

[6] = tested on: MCF-7 breast cancer cells; assay: Quantification of apoptosis (Annexin V-PI), MCF-7; type: cell-based, human; conditions: MCF-7 cells, 5 and 10 µM, 24 h
Text: Apoptotic population of cancer cells was quantified by Annexin V-propidium iodide (PI) staining technique (Abcam, Cambridge, MA, USA) using a flow cytometer as per published technique.

[7] = tested on: DU145 prostate cancer cells; assay: MTT antiproliferative assay, DU145; type: cell-based; conditions: Homo sapiens, DU-145; MTT assay; cancer cell line; mean of three independent experiments ± S.E.M.; read-out: IC50 DU145 Prostate

- effect on caspase-8 activity (caspase-8): did not show considerable effect
- effect on caspase-3 activity (caspase-3): enhanced caspase-3 and -9 activities
- effect on caspase-9 activity (caspase-9): enhanced caspase-3 and -9 activities
- IC50 [4]: 6.13 ± 0.64 µM
- IC50 [7]: 10.8 ± 0.42 µM
SMILES: COc1cc(CO)ccc1OC1OC(COC(=O)c2ccc(F)cc2)C(O)C(O)C1O (centres unmarked) [Compound 9f, (6-(4-(hydroxymethyl)-2-methoxyphenoxy)-tetrahydro-3,4,5-trihydroxy-2H-pyran-2-yl)methyl 4-fluorobenzoate]
- effect on cytosolic cytochrome c levels (cytosolic cytochrome c [1]): dose dependently increased
- effect on cell cycle distribution (HL-60 cells): cell cycle arrest at G0/G1 phase
- effect on Bcl-2 levels (Bcl-2 [2]): dose dependent inhibition of Bcl-2
- effect on Bcl-2 levels (Bcl-2 [3]): dose dependent inhibition of Bcl-2
- effect on cytosolic cytochrome c levels (cytosolic cytochrome c [5]): dose dependently increased
- apoptotic cell population [6]: dose-dependent increase in the early apoptotic to late apoptotic population
